In series [1] the test system is glucose uptake by tps1Δ yeast cells. Kind of series: Zero-trans uptake of radioactive glucose in tps1Δ yeast cells. Type of series: cell-based, S. cerevisiae. Conditions: for IC50: Saccharomyces cerevisiae. How it is done: Zero-trans uptake of radioactively labeled [U-^14C]glucose, [U-^14C]fructose or [U-^14C]galactose by S. cerevisiae cells was determined in accordance with previous studies ([45], [75]). Cells were grown on different carbon sources depending on the experiment. For measuring glucose uptake activity in the tps1Δ and tps1Δ hxtΔ strains, cells were grown on YP medium containing 325 mM glycerol (measurement of 10 s). Typically, for compound characterization and kinetic studies in wild type and tps1Δ strains, cells were (pre)grown on Complete Synthetic medium supplemented with 110 mM galactose (measurement of 10 s). In the experiments on the influence of hexokinase activity on the sugar uptake rate, the measurement duration was shortened to 5 s and cells were always grown on YP medium containing 325 mM glycerol and 430 mM ethanol. After harvesting, cells were washed twice with ice-cold 25 mM MES-buffer pH 6, and resuspended in their respective medium without sugar to a final concentration of 45 mg (wet weight)/mL. The amount of added tracer was estimated to give a response close to at least 1000 counts per min in order to adequately counter background noise. Cells were first preincubated for 10 min at 30°C with the compound to acclimate the cells to the temperature and to allow adequate interaction with the compound prior to uptake. Next, hexose sugar was mixed with the cell suspension, which was then incubated at 30°C for 5 or 10 s, depending on the experiment, after which the cells were rapidly filtered over a glass microfiber filter (Whatman GF/C) and washed three times with ice-cold dH2O. The loaded filter was transferred to a scintillation vial containing 3 mL liquid scintillation cocktail (Ultima-Flo M, Perkin Elmer) and counted using the Hidex 300 SL. Three blank measurements per strain were typically included to account for background signal, for which the cells were first quenched before adding the radioactive label.

In another series the test system is yeast tps1Δ strain. Kind of series: Growth (rescue) of the yeast tps1Δ strain on galactose with or without glucose. Type of series: cell-based, S. cerevisiae. How it is done:
Growth curves were made by measuring OD595 in a 96-well plate using the Multiskan™ FC Microplate Photometer (Thermo Fisher Scientific). Typically, for tps1Δ rescue experiments, cells were (pre)grown in Complete Synthetic medium containing 110 mM galactose. Compounds were always added 10 min prior to glucose addition to ensure maximal interaction between the cells and compounds. Cells originating from the preculture were harvested, washed in medium without sugar, after which they were resuspended to an OD of 0.1 in 200 µL of the appropriate medium. At least three technical replicates were included per condition. OD595 was measured at 30°C every 30 min with a 10-min shaking interval.

Series [2] has as its system A549 lung adenocarcinoma cells. Kind of series: Proliferation of A549 lung adenocarcinoma cells. Type of series: cell-based, human. The note with it: for relative potency in reducing maximal growth rate of A549 cells: 1 mM glucose, 6.25-50 µM. The method, then:
For both adherent A549 and MCF10A H-RAS^V12 cell lines, growth curves were established using the IncuCyte® ZOOM technology. By collecting phase contrast images, the IncuCyte® software provides a calculated confluency percentage from which growth curves can be deducted. The cell number/density was measured by calculating the confluency of phase objects (cells) sticking on the bottom of the well. Cells were seeded at a density of 1000 - 1500 cells/well in a Nunc-Edge™ 96-well plate (Thermo Fisher Scientific) and growth was typically measured over 3 to 5 days. For the measurement of apoptosis induction using the MCF10A H-RAS^V12 cell line, the IncuCyte® Caspase-3/7 green dye was added to the medium in the recommended concentration at the beginning of the growth curve experiment. Apoptosis was detected by taking fluorescent images by excitation at 488 nm followed by IncuCyte® software analysis. Cell growth of the KMS-12-PE multiple myeloma cell line, which grows in suspension, was measured by manual cell counting. Cells were initially seeded at a density of 10^4 cells/well and incubated for 4 days after which the cell number was counted. For all cell lines, the same medium used for pregrowth was also used for the growth curve experiment, albeit with different glucose concentrations depending on the experimental design. With compound administration, the final concentration of DMSO never exceeded 0.1%. Typically, at least four technical repeats were included per condition.

The subject of series [3] is 2-deoxyglucose uptake in A549 lung adenocarcinoma cells. Kind of series: 2-deoxyglucose uptake in A549 lung adenocarcinoma cells. It is filed as cell-based, human. How it is done: Zero-trans glucose uptake in A549 cells was approximated by measuring the uptake of [1,2-^3H]2-deoxyglucose. For this purpose, A549 cells were pregrown in RPMI medium containing 10 mM glucose in a 24-well plate to a cell density of around 100,000 cells/well. Prior to adding radioactive label, cells were gently washed twice in Krebs-Ringer-HEPES buffer (50 mM HEPES pH 7.4, 137 mM NaCl, 4.7 mM KCl, […], 1.3 mM MgSO4 and 0.1% w/v BSA) at 30°C to remove any residual sugar. RPMI medium without sugar containing the compound intended for treatment, was added to the cells for 15 min at 37°C to allow adequate interaction of the cells with the compound. The uptake measurement was initiated by adding an equal volume of medium containing radiolabeled 2DG. After 3 - 4 min incubation at 37°C, medium was aspirated and cells were gently washed three times with ice-cold Krebs-Ringer-HEPES buffer. Cells were lysed by adding 200 µL of ice-cold 0.1 M NaOH solution and incubating the plate for 10 min at 37°C. Cell lysates were transferred to scintillation vials for subsequent scintillation counting. For blank measurements, cells were incubated with 50 µM Cytochalasin B prior to the uptake measurement.

The nature of series [4]: Solubility of compound stocks. Type of series: physicochemical. The note with it: 100% DMSO. The method, then:
WBC-A and the complete structural analog library ( Supplementary Table 2 ) were purchased from different vendors, i.e. Enamine (n = 185), Life Chemicals (n = 10), LabNetwork (n = 4) and Uorsy (n = 4). WBC compounds in general are very insoluble in aqueous solutions, challenging their solubilization. Throughout this work, WBC compounds were always stock aliquoted at 50 mM concentration in 100% DMSO. In many cases, gentle sonication and heating up to 37°C was necessary to completely solubilize the compound stocks. Whereas WBC-A, -15C, -4C and -11C could be dissolved at 50 mM, some structural analogs remained in smooth or rough suspension, regardless of the concentration. Even though it is recommended to aliquot compound stocks, no significant decrease in compound strength by repeated freeze and thaw cycles in DMSO was observed.

Where two headings read alike, the source gives them in different places. Some results are limits rather than exact numbers.

Usually IC50 stands for the point on the concentration scale where inhibition reaches its midpoint. Take `Cc1nc(SCC(=O)c2ccc3c(c2)NC(=O)CO3)c2c(-c3cccs3)csc2n1` [WBC-11C]: the IC50 in series [1] (read-out: IC50 values for 2.5 mM glucose uptake in tps1∆ cells) stood at 44 µM. Moreover, in the series with yeast tps1Δ strain, the “Rescue of the tps1∆ strain on 2.5 mM glucose at 100 µM” value is “Yes” and the “Minimal rescue concentration for growth of tps1∆ cells on 2.5 mM glucose” value was determined as 50 µM. Besides, the “Selected from primary screen for growth inhibition of A549 cells at 50 µM” value in series [2] (RPMI 1 mM glucose) is on record as “Yes”. In addition, the “relative potency in reducing maximal growth rate of A549 cells” value in series [2] was “most”. In addition, the “Selected for having an IC50 ratio (10 mM glucose : 1 mM glucose) of A549 growth higher than WBC-A” value in series [2] (ratio of IC50 on 10 mM and 1 mM glucose, compared to WBC-A) was “Higher IC50 ratio and confirmed”. The “type of inhibition of 2-deoxyglucose uptake (Lineweaver-Burk)” value in series [3] is on record as “uncompetitive”. Besides, the “concentration at which compound could be dissolved” value in series [4] was no less than 50 mM.

One may read the Ki as the dissociation constant of the complex between target and ligand, obtained from inhibition or displacement. On to `Cc1nc(Sc2nnc3n2CCCCC3)c2c(-c3cccs3)csc2n1` [WBC-A], for which the IC50 in series [1] (read-out: IC50 for inhibition of 2.5 mM glucose uptake) is 20.8 µM. Besides, the “type of inhibition of glucose uptake” value in series [1] (tps1Δ yeast cells) is given as “mixed type of inhibition”. Further, the Ki was determined as 8.35 µM in series [1] (tps1Δ yeast cells, read-out: Ki (Dixon plot) for glucose uptake) and 52.8 µM in series [3] (read-out: Ki for 2-deoxyglucose uptake (Dixon plot)). Also, in the series on yeast tps1Δ strain (100 μM), the “rescue of growth on galactose in the presence of 5 mM glucose” value is reported as “rescued growth”. Further, the “restoration of growth in the presence of 7.5 mM glucose” value in the series with yeast tps1Δ strain (100 μM) is “not able to restore growth”. The “Rescue of the tps1∆ strain on 2.5 mM glucose at 100 µM” value in the series on yeast tps1Δ strain is recorded as “Yes”. For the same molecule, the “Minimal rescue concentration for growth of tps1∆ cells on 2.5 mM glucose” value in the series with yeast tps1Δ strain is 25 µM. Besides, the “Selected from primary screen for growth inhibition of A549 cells at 50 µM” value in series [2] (RPMI 1 mM glucose) is recorded as “Yes”. Moreover, in series [2], the “relative potency in reducing maximal growth rate of A549 cells” value was “intermediate potency”. The “inhibition of A549 growth” value in series [2] (RPMI 1 mM glucose, 12.5 µM) was “pronounced inhibition”; in series [2] (RPMI 1 mM glucose, concentrations higher than 12.5 µM (25, 50 µM)), “completely blocked continued cancer cell proliferation”; in series [2] (RPMI 1 mM or 5 mM glucose, 12.5-50 µM, more pronounced for 1 mM), “dose-dependent inhibition of growth”. In series [3], the “type of inhibition of 2-deoxyglucose uptake (Lineweaver-Burk)” value is recorded as “noncompetitive type of inhibition”. In addition, the “K'i for 2-deoxyglucose uptake” value in series [3] (Dixon plot (Ki = K'i) or Cornish-Bowden plot (WBC-11C)) came to 52.78 µM. Further, the “concentration at which compound could be dissolved” value in series [4] is no less than 50 mM.

Source of the values: PMC11374660, “The novel family of Warbicin® compounds inhibits glucose uptake both in yeast and human cells and restrains cancer cell proliferation” (Frontiers in Oncology, 2024).
